The source of these data is patent US9011853B2, “B7-H4 fusion proteins and methods of use thereof” (Amplimmune, Inc., priority 2009, dated 2015).

Where “and” joins values, the source holds several entries; their conditions need not be identical. Equal entries are not always repeated. Entries after “also recorded” stand apart in the source; their conditions may differ.

The test system of one assay is DBA/1 mice. Nature of the assay: Therapeutic CIA study AA#80 (male mice), disease score. It counts as in vivo, mouse. As to conditions: for clinical score: individual mice sampled for serum analysis; for AA#80 CIA disease scores: individual mice (Tag #). As to the method:
DBA/1 mice (10 per group) aged 7-9 weeks were used for the CIA model. Mice from several vendors (Jackson Laboratories, Harlan Laboratories, and Taconic Farms) were tested and it was determined that Taconic mice are most appropriate for the CIA studies. Taconic mice develop more consistent and severe disease symptoms and show continued disease progression, while mice from the other vendors often show stable, less severe disease, even in the absence of treatment. female (F) mice in AA#79 and male (M) mice in AA#80, were tested to determine which gender to use in future experiments.
On the day before the study is initiated, the hair on the right flank of each mouse was removed using an electric clipper. A metal identification tag was placed on the right ear of each mouse. On Day 0, mice were immunized with 100 μL of chicken collagen type II/Complete Freund's Adjuvant (CII/CFA) emulsion in the right flank. On Day 20, the hair on the left flank of each mouse was removed using an electric clipper, and on Day 21, mice were immunized with 100 μL of chicken collagen type II/Incomplete Freund's Adjuvant (CII/IFA) emulsion in the left flank. Pre-filled syringes of CII/CFA and CII/IFA emulsion purchased from Hooke Laboratories were used to ensure consistent dosing with and potency of the immunogen.
Early arthritis symptoms, such as erythema and mild swelling, usually appear on Day 21, and on Day 28, more severe symptoms such as swelling in many digits and inflammation extending to the tarsal joint are typically present. Each limb is evaluated for severity of arthritis symptoms three times a week using a widely accepted arthritis severity score system, shown in Table 2. The scores from each of the 4 limbs are summed to yield the disease score of each mouse. […]
Treatment was initiated when the average disease score for the study animals was greater than four. This corresponded to Day 29 in AA#79 and Day 24 in […]. By waiting until animals are symptomatic, it was ensured that the model is performed in a therapeutic rather than prophylactic mode.
B7-H4-Ig, RPA110010, and murine B7-H4-Ig proteins were administered by intraperitoneal (IP) injection 3 times a week for a total of 8 doses. RPA110010 is an extracellular domain variant of B7-H4-Ig, SEQ ID NO:126. Control murine and human IgG proteins were given once a week for a total of 3 doses. […] All proteins were diluted to the desired concentration (500 μg in 500 μL, or 1 mg/mL) with sterile PBS immediately before injection. Vehicle control mice receive Amplimmune formulation buffer diluted 1:10 in PBS, with an injection volume of 500 μL.

The next assay relates to SJL mice. Nature of the assay: PLP139-151-induced R-EAE model, clinical score and relapse. It counts as in vivo, mouse. As to the method: For PLP139-151-induced R-EAE, 6- to 7-wk-old female SJL mice were immunized s.c. with 100 μL of an emulsion containing 200 μg of M. tuberculosis H37Ra and 50 μg of […] (HSLGKWLGHPDKF) (SEQ ID NO:139) distributed over three spots on the flank. Individual animals were observed daily and clinical scores assessed in a blinded fashion on a 0-5 scale as shown in Table 11 (Miller, et al., Curr. Protocols Immulo., Chapter 12, Unit 15.1). Unless otherwise mentioned, all mice were age and sex-matched for all experiments.
Mice were randomly divided into four groups. For the disease prevention model, B7-H4-Ig or control IgG at 3 mg/kg was injected intraperitoneally (i.p.) on the same day as PLP130-151 priming. For the therapeutic model, B7-H4-Ig or control IgG at 3 mg/kg was given i.p. beginning on approximately Day 21 post PLP130-151 priming. In both cases, B7-H4-Ig was administrated, 3 times a week, for 2-4 weeks.
To determine the therapeutic benefit of B7-H4-Ig, murine B7-H4-Ig was tested in the PLP139-151-induced R-EAE mouse model both for prevention of disease (treatment begun on the same day of disease induction) and therapeutic intervention (treatment begun during the disease remission) settings (FIG. 33). In both cases the disease course was followed for about 2 months to assess clinical disease following the grading system shown in […].
Female SJL mice were first immunized with PLP139-151 peptide emulsified in CFA and then randomized into 2 groups for either prevention or therapeutic treatment. For each treatment regimen there were 2 subgroups, with one subgroup receiving Control IgG and the other subgroup receiving murine B7-H4-Ig. Both Control IgG and murine B7-H4-Ig were given at 3 mg/kg, 3 times a week for 4 weeks. Prevention treatment (FIG. 34) means that murine B7-H4-Ig or Control IgG was administered starting on the day at PLP immunization (t=0). Therapeutic treatment (FIG. 35) means that murine B7-H4-Ig or Control IgG was administered beginning on Day 21 (t=21). The data is presented as the mean clinical score over the 55 day time course with 5 mice per group, and the clinical scores and injection were conducted double blinded.
The effect of B7-H4-Ig treatment on the number of Treg cells in vivo was analyzed in this study. The effect of B7-H4-Ig on the number and phenotype of CD4^+ T cells infiltrating into the CNS following B7-H4-Ig treatment, the relevant site for activity in vivo, was determined. […] SJL mice were first immunized with PLP139-151 peptide. B7-H4-Ig treatment started during remission (Day 23). Mice received mouse Control IgG, 100 μg, or B7-H4-Ig at either 60 or 300 μg, 3 times per week for 2 weeks or 4 weeks. Half of the animals (5 mice from each group) were euthanized on Day 35, after 6 doses of B7-H4-Ig. The rest of the animals (5 mice from each group) were euthanized on Day 50, after 12 doses of B7-H4-Ig. Mouse spleens, draining lymph nodes, spinal cords and brains were collected, tissues were made into a single cell suspension and counted via the use of a hemocytometer, and analyzed for the presence of effector/memory CD4^+ T cells (CD4^+CD44^+) and Treg cells (CD4^+CD25^+FoxP3^+). Whole cerebellar and lumbar spinal cord tissue samples were snap frozen and processed as described above to analyze the number of CD4^+ and FoxP3^+ cells present within the CNS by histology.
Human B7-H4-Ig was also tested for its therapeutic efficacy in the PLP139-151-induced R-EAE mouse model. […]

On to “B7-H4-Ig: B7-H4 extracellular domain fused to Ig Fc; bare label is the human protein in Example 3, murine protein in Examples 1, 2, 5, 7-11”, for which, in the assay on DBA/1 mice (male DBA/1 mice, 20 mg/kg IP 3× weekly, 8 doses from Day 24, vs control groups (FIG. 8), 20 mg/kg), the “disease scores, AA#80” value was “lower disease scores than mice in the control groups; also recorded: prolonged period of stable disease scores”. The “clinical scores (average), R-EAE” value in the assay on SJL mice (3 mg/kg i.p. 3 times a week for 4 weeks, preventative (t=0) and therapeutic (t=21) regimens, 0-5 scale (FIGS. 34, 35)) is listed as 0-0.5. In addition, in the assay with SJL mice (1st in vivo study, treatment from the day of PLP139-151/CFA priming), the “disease symptoms during the acute phase of R-EAE” value is recorded as “did not affect disease symptoms during the acute phase of R-EAE”. Moreover, the “mean clinical score, primary relapse” value with SJL mice (both 3 mg/kg (60 μg/dose) and 15 mg/kg (300 μg/dose), three times a week from day 23 (FIG. 46)) is listed as “significantly prevented the primary relapsing”.
In the case of “Human B7-H4-Ig: human B7-H4 extracellular domain fused to hinge, CH2 and CH3 regions of human immunoglobulin Cγ1 chain; representative SEQ ID NOs:114-137”, the clinical score in the assay on DBA/1 mice (Day 27) is 2 (2×) and 3; in the assay on DBA/1 mice (Day 34), 5 and 4; in the assay on DBA/1 mice (Day 41), 9 (2×) and 6. For the same substance, the “AA#80 CIA disease scores” value with DBA/1 mice (Study Day 20) is 4 (2×) and 2 (3×) and 3 (2×) and 5 (2×); in the assay on DBA/1 mice (Study Day 22) it was 4 (4×) and 3 and 5 (4×); with DBA/1 mice (Study Day 24), 4 (3×) and 5 (5×) and 2; in the assay with DBA/1 mice (Study Day 27), 3 (3×) and 2 (5×) and 4; with DBA/1 mice (Study Day 29) it was 2 (5×) and 3 and 1 and 5 (2×); with DBA/1 mice (Study Day 31), 2 (4×) and 3 and 1 and 4 (2×) and 5. For the same substance, the “AA#80 CIA disease scores” value with DBA/1 mice (Study Day 34) was 2 (2×) and 5 (3×) and 1 and 4 (2×) and 6; with DBA/1 mice (Study Day 36), 3 and 7 (3×) and 4 (3×) and 5 and 6; in the assay on DBA/1 mice (Study Day 38), 3 (4×) and 7 and 9 and 5 and 6 and 10 and 12; in the assay with DBA/1 mice (Study Day 41), 4 and 9 (5×) and 6 and 10 and 13; in the assay with DBA/1 mice (Study Day 44), 3 and 11 (3×) and 8 and 9 and 12 and 14 and 4. Also, the “mean clinical score, primary disease relapse” value in the assay with SJL mice (5 or 25 mg/kg 3 times a week for 4 weeks from Day 23, vs Synagis (FIG. 48A)) is listed as “reduction of mean clinical score”. The long-term relapse rate entry with SJL mice (5 or 25 mg/kg 3 times a week for 4 weeks from Day 23, vs Synagis (FIG. 48B)) is “reduction in long-term relapse rate”.
